# Laboratory results reported in patent publication US10975013B2, “Method for producing vanillin” (T. HASEGAWA CO., LTD., priority 2018, dated 2021).
# Assays:
# Format in all cases: physicochemical
# [1] = Solubility of vanillin in dibutyl maleate-solvent mixed solvents (1:1) at 25° C.
# [2] = Solubility of vanillin in various solvents at 25° C.
# [3] = Solubility of vanillin in solvent-heptane mixed solvents (1:1) at 25° C.
smiles,measurement,setting,value
COc1cc(C=O)ccc1O [vanillin],Solubility (mass %) of vanillin in dibutyl maleate-solvent mixed solvent (1:1) at 25° C.,[1]; dibutyl maleate-Cyclohexane (1:1),2.1% mass %
same,Solubility (mass %) of vanillin in dibutyl maleate-solvent mixed solvent (1:1) at 25° C.,[1]; dibutyl maleate-Heptane (1:1),1.7% mass %
same,Solubility (mass %) of vanillin in dibutyl maleate-solvent mixed solvent (1:1) at 25° C.,[1]; dibutyl maleate-Hexane (1:1),1.7% mass %
same,Solubility (mass %) of vanillin in dibutyl maleate-solvent mixed solvent (1:1) at 25° C.,[1]; dibutyl maleate-Isooctane (1:1),1.8% mass %
same,Solubility (mass %) of vanillin in dibutyl maleate-solvent mixed solvent (1:1) at 25° C.,[1]; dibutyl maleate-Petroleum ether (1:1),1.6% mass %
same,Solubility (mass %) of vanillin in dibutyl maleate-solvent mixed solvent (1:1) at 25° C.,[1]; dibutyl maleate-Toluene (1:1),5.5% mass %
same,Solubility (mass %) of vanillin at 25° C.,[2]; solvent 1-Chlorotetradecane,0.4% mass %
same,Solubility (mass %) of vanillin at 25° C.,[2]; solvent Benzyl benzoate,6.6% mass %
same,Solubility (mass %) of vanillin at 25° C.,[2]; solvent Dibenzyl ether,5.5% mass %
same,Solubility (mass %) of vanillin at 25° C.,[2]; solvent Dibutyl adipate,10.9% mass %
same,Solubility (mass %) of vanillin at 25° C.,[2]; solvent Dibutyl fumarate,9.2% mass %
same,Solubility (mass %) of vanillin at 25° C.,[2]; solvent Dibutyl maleate,11.3% mass %
same,Solubility (mass %) of vanillin at 25° C.,[2]; solvent Dibutyl succinate,15.4% mass %
same,Solubility (mass %) of vanillin at 25° C.,[2]; solvent Diethyl phthalate,14.8% mass %
same,Solubility (mass %) of vanillin at 25° C.,[2]; solvent Diethyl sebacate,13.6% mass %
same,Solubility (mass %) of vanillin at 25° C.,[2]; solvent Diisobutyl adipate,7.7% mass %
same,Solubility (mass %) of vanillin at 25° C.,[2]; solvent Ethyl laurate,3.1% mass %
same,Solubility (mass %) of vanillin at 25° C.,[2]; solvent Isopropyl myristate,2.0% mass %
same,Solubility (mass %) of vanillin at 25° C.,[2]; solvent Tetraglyme,31.3% mass %
same,Solubility (mass %) of vanillin at 25° C.,[2]; solvent Tripropionin,18.1% mass %
same,Solubility (mass %) of vanillin at 25° C.,[2]; solvent n-Pentadecane,0.05% mass %
same,Solubility (mass %) of vanillin at 25° C.,[2]; solvent γ-Undecalactone,16.2% mass %
same,Solubility (mass %) of vanillin at 25° C.,[2]; solvent δ-Decalactone,17.4% mass %
same,Solubility (mass %) of vanillin in solvent-heptane mixed solvent (1:1) at 25° C.,[3]; Benzyl benzoate-heptane (1:1),1.2% mass %
same,Solubility (mass %) of vanillin in solvent-heptane mixed solvent (1:1) at 25° C.,[3]; Dibenzyl ether-heptane (1:1),0.9% mass %
same,Solubility (mass %) of vanillin in solvent-heptane mixed solvent (1:1) at 25° C.,[3]; Dibutyl adipate-heptane (1:1),1.4% mass %
same,Solubility (mass %) of vanillin in solvent-heptane mixed solvent (1:1) at 25° C.,[3]; Dibutyl fumarate-heptane (1:1),1.0% mass %
same,Solubility (mass %) of vanillin in solvent-heptane mixed solvent (1:1) at 25° C.,[3]; Dibutyl succinate-heptane (1:1),1.7% mass %
same,Solubility (mass %) of vanillin in solvent-heptane mixed solvent (1:1) at 25° C.,[3]; Diethyl phthalate-heptane (1:1),Oiling out
same,Solubility (mass %) of vanillin in solvent-heptane mixed solvent (1:1) at 25° C.,[3]; Diethyl sebacate-heptane (1:1),1.6% mass %
same,Solubility (mass %) of vanillin in solvent-heptane mixed solvent (1:1) at 25° C.,[3]; Diisobutyl adipate-heptane (1:1),1.4% mass %
same,Solubility (mass %) of vanillin in solvent-heptane mixed solvent (1:1) at 25° C.,[3]; Ethyl laurate-heptane (1:1),0.6% mass %
same,Solubility (mass %) of vanillin in solvent-heptane mixed solvent (1:1) at 25° C.,[3]; Isopropyl myristate-heptane (1:1),0.3% mass %
same,Solubility (mass %) of vanillin in solvent-heptane mixed solvent (1:1) at 25° C.,[3]; Tetraglyme-heptane (1:1),Oiling out
same,Solubility (mass %) of vanillin in solvent-heptane mixed solvent (1:1) at 25° C.,[3]; Tripropionin-heptane (1:1),Oiling out
same,Solubility (mass %) of vanillin in solvent-heptane mixed solvent (1:1) at 25° C.,[3]; dibutyl maleate-Heptane (1:1),1.7% mass %
same,Solubility (mass %) of vanillin in solvent-heptane mixed solvent (1:1) at 25° C.,[3]; γ-Undecalactone-heptane (1:1),3.6% mass %
same,Solubility (mass %) of vanillin in solvent-heptane mixed solvent (1:1) at 25° C.,[3]; δ-Decalactone-heptane (1:1),Oiling out
